Read-outs that look alike come from different tables or passages of the source.
Legend:
[1] = system: HL-60; assay: RNA-seq; format: cell-based, human; details: for ABI1 Log2FC / CBFB Log2FC / CCR2 Log2FC / CD44 Log2FC / CDK6 Log2FC / CEBPB Log2FC / CSF3R Log2FC / CTNNBIP1 Log2FC / ELANE Log2FC / EP300 Log2FC / FLI1 Log2FC / FUT4 Log2FC / GATA2 Log2FC / HCLS1 Log2FC / ITGA4 Log2FC / ITGAM Log2FC / ITGB1 Log2FC / ITGB2 Log2FC / JUN Log2FC / MPO Log2FC / MYC Log2FC / NFE2 Log2FC / PIR Log2FC / RUNX1 Log2FC / SOX4 Log2FC / SPI1 Log2FC / TESC Log2FC / TRIB1 Log2FC / ZBTB46 Log2FC / ZFP36L1 Log2FC: HL-60, RNA-Seq
Description: Transcriptomic analyses were performed following low-input 3′ end RNA sequencing approximation for characterization of transcriptional changes in ML-2 and HL-60 samples treated with CM-444 and CM-1758.
Low-input 3′ end RNA-seq was performed as previously described[53],[54] with minor modifications. Briefly, RNA from 0.1 ×10^6 cells from each experimental condition was purified using a Dynabeads mRNA DIRECT Purification Kit (Thermo Fisher Scientific). For barcoded cDNA generation, polyadenylated RNA was retrotranscribed using an Affinity Script cDNA Synthesis Kit (Agilent Technologies), and barcoded primers also harboring T7 promoter and a partial Read2 sequence for illumine sequencing (CGATTGAGGCCGGTAATACGACTCACTATAGGGGGCGACGTGTGCTCTTCCGATCTXXXXXXNNNNTTTTTTTTTTTTTTTTTTTT, where XXXXXX is the cell barcode and NNN is a unique molecular identifier or UMI, which represents the same initial RNA molecule for future quantification). At this point, the samples were pooled (≤6 samples per pool) at equimolar ratios assessed by q-PCR.
The samples were then treated with Exonuclease I (Thermo Fisher Scientific following a 1.2x positive SPRI-selection. Second-strand cDNA synthesis was then performed using a NEBNext Ultra II Directional RNA Second-Strand Synthesis Module (New England Biolabs) for 2 h at 16 °C, followed by a 1.4x positive solid-phase reverse immobilization (SPRI) cleanup. The samples were linearly amplified by T7 in vitro transcription using a T7 RNA Polymerase (New England Biolabs) for 16 h at 37 °C. After DNAse treatment (TURBO DNAse I, Thermo Fisher Scientific) for 15 min at 37 °C to remove dsDNA, samples were cleaned with a positive 1.2x SPRI-selection. RNA size, quality, and concentration were determined by analysis with a Qubit Fluorometer (Termo Fisher Scientific) and TapeStation (Agilent 4200 TapeSation System, Agilent Technologies). If necessary, RNA was fragmented in 200- to 300-bp fragments using Zn2+divalent cations followed by a 2x positive SPRI cleanup. Fragmented RNA was dephosphorylated using FastAP Thermosensitive Alkaline Phosphatase (Thermo Fisher Scientific) for 10 min at 37 °C to enhance RNA ligation yield. In this step, a partial Read1 ([…]) sequence for illumine sequencing was ligated to the 3′ end of the fragmented RNA using T4 RNA Ligase I (New England Biolabs). After a 1.5x positive SPRI cleanup, the RNA product was retrotranscribed using an Affinity Script cDNA Synthesis Kit (Agilent Technologies) and a specific retrotranscription primer ([…]). The library was then purified by 1.5x positive SPRI cleanup, and the yield of the previous steps was determined by q-PCR. Finally, PCR using KAPA HiFi HotStar Ready Mix (Kapa Biosystems) was performed for second-strand cDNA synthesis, illumine primers addition (Read1-P5: […] and Read2-P7: […]) and library amplification using the recommended cycle numbers to minimize over-amplification. The product was purified by a 0.7x positive SPRI cleanup. The quality of the final library was determined by q-PCR (based on the threshold cycle, or Ct, obtained for GAPDH (Fw: […], Rv: […]) or GUSB (Fw: […], Rv: […]) housekeeping genes calibrated per individual set of samples, Qubit Fluorometer (Thermo Fisher Scientific) and TapeStation (Agilent 4200 TapeStation System, Agilent Technologies). All libraries were pooled at equimolar ratios and sequenced on a NextSeq500 (Illumina) using 60 bp single-end reads at a minimum sequence depth of 10 million reads per sample.
Raw reads were demultiplexed using bcl2fastq2 Conversion Software v2.19 (Illumina) to convert base call (BCL) files into FastQ files. The quality control of FastQ files was performed using FastQC (Bioinformatics Babraham Institute). Sequencing reads were aligned to hg19 human reference using Bowtie 2 (Johns Hopkins University) and quantified using quant3p script (github.com/ctlab/quant3p). […]

[2] = target: T1, hERG potassium channels (Homo sapiens, UniProt Q12809); assay: hERG blockade assay (whole-cell patch clamp, CHO cells); format: cell-based; details: for IC50: read-out: hERG binding: IC50
T1 construct: host or cells: CHO cells
T1 sequence (Q12809 whole entry): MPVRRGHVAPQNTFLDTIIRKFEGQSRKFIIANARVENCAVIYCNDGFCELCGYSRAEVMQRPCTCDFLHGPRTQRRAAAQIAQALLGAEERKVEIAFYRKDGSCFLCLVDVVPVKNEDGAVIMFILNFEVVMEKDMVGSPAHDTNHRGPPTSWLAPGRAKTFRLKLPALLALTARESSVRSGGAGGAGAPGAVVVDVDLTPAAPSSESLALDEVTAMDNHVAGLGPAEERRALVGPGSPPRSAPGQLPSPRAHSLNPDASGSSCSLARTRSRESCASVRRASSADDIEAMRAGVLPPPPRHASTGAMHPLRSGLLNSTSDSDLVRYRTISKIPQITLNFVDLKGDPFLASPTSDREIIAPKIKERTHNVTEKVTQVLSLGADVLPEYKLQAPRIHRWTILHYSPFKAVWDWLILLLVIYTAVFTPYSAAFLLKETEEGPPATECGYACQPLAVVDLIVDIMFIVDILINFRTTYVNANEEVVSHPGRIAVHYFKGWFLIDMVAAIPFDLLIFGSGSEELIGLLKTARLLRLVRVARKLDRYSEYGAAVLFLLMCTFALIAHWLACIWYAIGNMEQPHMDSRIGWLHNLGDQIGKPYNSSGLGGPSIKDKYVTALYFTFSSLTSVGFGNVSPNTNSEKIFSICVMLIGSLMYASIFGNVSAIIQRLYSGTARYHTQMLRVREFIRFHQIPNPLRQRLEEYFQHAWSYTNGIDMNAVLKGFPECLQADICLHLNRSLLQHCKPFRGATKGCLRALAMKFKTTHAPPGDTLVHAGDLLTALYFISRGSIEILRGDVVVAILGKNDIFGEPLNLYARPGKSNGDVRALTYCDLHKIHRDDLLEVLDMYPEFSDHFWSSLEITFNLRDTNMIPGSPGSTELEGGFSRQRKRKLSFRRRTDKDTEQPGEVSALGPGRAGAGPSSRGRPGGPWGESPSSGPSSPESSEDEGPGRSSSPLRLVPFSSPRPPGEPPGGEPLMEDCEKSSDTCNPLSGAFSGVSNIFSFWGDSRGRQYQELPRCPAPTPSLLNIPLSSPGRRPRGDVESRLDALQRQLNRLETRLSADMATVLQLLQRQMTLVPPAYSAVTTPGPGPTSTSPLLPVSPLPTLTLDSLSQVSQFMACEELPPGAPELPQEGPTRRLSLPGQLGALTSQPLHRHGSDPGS
Description: This study was conducted at Wuxi (http://www.wuxi.com/), using CHO cells with stable expression of hERG potassium channels (Sophion Biosciences, Ballerup, Denmark). Cells were cultured (F12 medium, supplemented with 10% FBS, 1% Geneticin® selective antibiotic, 89 μg/mL hygromycin B) in a humidified and air-controlled (5% CO2) incubator at 37 °C ± 2 °C. Test compounds were diluted at different concentrations (0.3 μM–30μM), with a final DMSO concentration in an extracellular solution of <0.3%. The external solution consisted of 2 mM CaCl2, 1 mM MgCl2, 4 mM KCl, 145 mM NaCl, 10 mM glucose and 10 mM HEPES at pH 7.3–7.4. The internal solution consisted of 5.37 mM CaCl2, 1.75 mM MgCl2, 120 mM KCl, 10 mM HEPES, 5 mM EGTA and 4 mM Na2ATP at pH 7.2–7.3. The assay was performed at room temperature using the whole-cell patch clamp techniques controlled with Patchmaster Pro software. For quality control, minimum seal membrane resistance was set at 500 MOhms and the minimum/maximum specific hERG current (pre-compound) was 400 pA/3000 pA. A 100-nM amount of cisapride was used as the positive control to evaluate the reliability of the test system. Results are the average of two biological replicates.

[3] = HL-60, 25% GI50, 12 h, log2FC +/-1

SMILES	deregulated genes (RNA-seq) [1]	down-regulated genes (RNA-seq) [1]	up-regulated genes (RNA-seq) [1]	deregulated genes (RNA-seq) [1, 3]	down-regulated genes (RNA-seq) [1, 3]	up-regulated genes (RNA-seq) [1, 3]	ABI1 Log2FC [1]	CBFB Log2FC [1]	CCR2 Log2FC [1]	CD44 Log2FC [1]	CDK6 Log2FC [1]	CEBPB Log2FC [1]	CSF3R Log2FC [1]	CTNNBIP1 Log2FC [1]	ELANE Log2FC [1]	EP300 Log2FC [1]	FLI1 Log2FC [1]	FUT4 Log2FC [1]	GATA2 Log2FC [1]	HCLS1 Log2FC [1]	further results
COc1cc2nc(-c3cc(C)oc3C)cc(NCC3CCN(c4ncc(C(=O)NO)cn4)CC3)c2cc1OC [CM-1758, 2-[4-[[[2-(2,5-dimethyl-3-furyl)-6,7-dimethoxy-4-quinolyl]amino]methyl] -1-piperidyl]pyrimidine-5-carbohydroxamic acid]	3299	1610	1589	1278	409	869	0.03309	-0.1665	0.8564	-0.4326	0.05972	0.4359	0.06074	1.186	-1.7362	-0.1778	-0.2831	-1.407	0.09944	-0.1237	ITGA4 Log2FC [1]: -1.197; ITGAM Log2FC [1]: 2.404; ITGB1 Log2FC [1]: 0.9626; ITGB2 Log2FC [1]: 0.07825; JUN Log2FC [1]: 0.9774; MPO Log2FC [1]: -2.297; MYC Log2FC [1]: -2.139; NFE2 Log2FC [1]: -0.3801; PIR Log2FC [1]: 1.629; RUNX1 Log2FC [1]: -0.01075; SOX4 Log2FC [1]: 0.2112; SPI1 Log2FC [1]: -0.6241; TESC Log2FC [1]: -0.09114; TRIB1 Log2FC [1]: -0.4986; ZBTB46 Log2FC [1]: 0.4368; ZFP36L1 Log2FC [1]: 1.334; hERG hill slope [2]: 0.99; IC50 [2]: 4.89 µM
COc1cc2nc(-c3ccc(C)o3)cc(NCC3CCN(c4ncc(C(=O)NO)cn4)CC3)c2cc1OC [CM-444, 2-[4-[[[6,7-dimethoxy-2-(5-methyl-2-furyl)-4-quinolyl]amino]methyl]-1-piperidyl]pyrimidine-5-carbohydroxamic acid]	227	39	188	136	3	133	-0.1754	-0.0298	0.967	-0.2341	0.2817	-0.1067	0.0126	0.7431	-2.007	-0.2558	-0.04836	-0.2495	-0.2076	-0.2476	ITGA4 Log2FC [1]: -0.309; ITGAM Log2FC [1]: 0.9545; ITGB1 Log2FC [1]: 0.4474; ITGB2 Log2FC [1]: -0.1397; JUN Log2FC [1]: 0.8212; MPO Log2FC [1]: -0.2249; MYC Log2FC [1]: -0.2011; NFE2 Log2FC [1]: -0.621; PIR Log2FC [1]: 0.9082; RUNX1 Log2FC [1]: -0.1954; SOX4 Log2FC [1]: 0.2596; SPI1 Log2FC [1]: -0.5566; TESC Log2FC [1]: 0.05581; TRIB1 Log2FC [1]: 0.02008; ZBTB46 Log2FC [1]: 0.2361; ZFP36L1 Log2FC [1]: 0.9631; hERG hill slope [2]: 1.33; IC50 [2]: 16.8 µM

— article PMC11219871, “Epigenetic-based differentiation therapy for Acute Myeloid Leukemia” (Nature Communications, 2024)
